Measurements published in publication PMC11326893, “A comprehensive measure of Golgi sphingolipid flux using NBD C6-ceramide: evaluation of sphingolipid inhibitors” (Journal of Lipid Research, 2024).

Assays:
ceramide kinase (CERK) [1] = target: T1, ceramide kinase (CERK) (Homo sapiens, UniProt Q8TCT0); experiment: NBD-C6-ceramide to NBD-C1P conversion (HPLC, fluorescence) in MCF7 cells overexpressing CERK; format: cell-based
T1 sequence (Q8TCT0 1-537): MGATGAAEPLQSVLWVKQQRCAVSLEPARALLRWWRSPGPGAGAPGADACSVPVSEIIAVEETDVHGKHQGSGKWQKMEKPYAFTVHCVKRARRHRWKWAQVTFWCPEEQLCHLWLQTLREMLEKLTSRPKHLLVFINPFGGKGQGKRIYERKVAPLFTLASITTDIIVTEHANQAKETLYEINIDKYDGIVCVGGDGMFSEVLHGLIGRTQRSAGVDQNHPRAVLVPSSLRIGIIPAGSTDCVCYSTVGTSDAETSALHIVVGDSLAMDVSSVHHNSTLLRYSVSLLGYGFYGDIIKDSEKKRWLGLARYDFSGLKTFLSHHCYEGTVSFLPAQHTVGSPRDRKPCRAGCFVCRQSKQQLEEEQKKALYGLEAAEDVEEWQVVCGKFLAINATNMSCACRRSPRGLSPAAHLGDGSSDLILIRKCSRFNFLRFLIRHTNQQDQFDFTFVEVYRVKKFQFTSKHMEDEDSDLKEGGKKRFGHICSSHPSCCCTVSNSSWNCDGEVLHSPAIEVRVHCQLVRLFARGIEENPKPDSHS

ceramide kinase (CERK) [2] = target: T1, ceramide kinase (CERK); experiment: in vitro activity assay with purified recombinant CERK, NBD-C6-Cer substrate; only about […] decrease at […]; format: biochemical; set-up: full-length human CERK; conditions: read-out: % decrease in activity at 50 μM and 100 μM
[3] = target: T2, glucosylceramide synthase (GCS) (Homo sapiens, UniProt Q16739); experiment: NBD-C6-ceramide to NBD-HexCer conversion in MCF7 cells, […] eliglustat; format: cell-based
T2 construct: gene UGCG
T2 sequence (Q16739 1-394): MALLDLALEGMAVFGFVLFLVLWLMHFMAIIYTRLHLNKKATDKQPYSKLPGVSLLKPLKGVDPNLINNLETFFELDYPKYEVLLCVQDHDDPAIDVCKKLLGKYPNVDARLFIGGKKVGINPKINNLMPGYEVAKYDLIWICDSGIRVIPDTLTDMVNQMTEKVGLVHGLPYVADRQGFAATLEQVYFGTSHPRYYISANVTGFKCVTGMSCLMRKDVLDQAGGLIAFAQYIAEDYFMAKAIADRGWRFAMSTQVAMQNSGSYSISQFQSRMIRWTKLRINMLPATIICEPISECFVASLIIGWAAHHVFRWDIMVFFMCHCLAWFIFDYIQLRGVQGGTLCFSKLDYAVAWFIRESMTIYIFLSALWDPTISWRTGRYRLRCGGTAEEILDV

For `O=C(Nc1nc2ccc(NC(=O)C34CC5CC(CC(C5)C3)C4)cc2s1)c1ccccc1` [NVP-231], the IC50 (ceramide kinase (CERK) [1]) was less than 10 nM.

For `CCCCCCCCCC(=O)NC(CN1CCOCC1)C(O)c1ccccc1` (stereo not drawn) [PDMP, 1-phenyl-2-decanoylamino-3-morpholino-1-propanol], the inhibition at 50 µM (ceramide kinase (CERK) [2]) was 20%.

With `CCCCCCCC(=O)N[C@H](CN1CCCC1)[C@H](O)c1ccc2c(c1)OCCO2` [eliglustat] the “NBD-C6-ceramide to NBD-HexCer conversion in MCF7 cells, 50 nM eliglustat” value [3] was “Inhibition with eliglustat and PDMP both nearly eliminated the production of NBD-C6-HexCer”.
